For one series, the target named is T1, integrin α5β1 (Homo sapiens, UniProt P05556+P08648).
T1 construct: purchased R&D Systems Inc. (Minneapolis, MN, USA)
Put plainly: biochemical. The format is binding. The note with it: for inhibition: at 22 mM (highest concentration), read-out: Maximal Inhibition Achieved (converted).

For the next series, the target named is T2, integrin αllbβ3 (Homo sapiens, UniProt P05106+P08514).
T2 construct: purchased Enzyme Research Laboratories Ltd. (Swansea, UK)
As to the kind of experiment: biochemical. The format is binding.

For series [1], the target named is T3, integrin αVβ3 (Homo sapiens, UniProt P05106+P06756).
T3 construct: purchased R&D Systems Inc. (Minneapolis, MN, USA)
Put plainly: biochemical. The format is binding. The conditions noted are these: for inhibition: at 22 mM (highest concentration), read-out: Maximal Inhibition Achieved (converted).

Series [2] addresses T3, integrin αVβ3. Put plainly: biochemical. The format is binding. The conditions noted are these: for inhibition: read-out: Maximal Inhibition Achieved (converted).
For series [3] the following is noted: cited from earlier work.
Series [4] addresses T3, integrin αVβ3. The format is binding. The note with it: immobilized SARS-CoV-2 S-protein; maximal inhibition, range up to 22 mM.
Series [5] deals with T3, integrin αVβ3. The note with it: at 11 mM; previously developed assay; cited from earlier work.
A further series deals with MC3T3-E1 cells. The note with it: biosensoric measurement, concentration-dependent, via blocking RGD-specific integrins; cited from earlier work.
Details of series [6]: method as in earlier work. The note with it: not marked *; octanol/water; cited from earlier work.
The mark [7] stands for this setting: integrin α5β1, immobilized RGD polymer.
[8] abbreviates: integrin α5β1, immobilized RGD polymer, ligand range 0.1-22 mM.
The mark [9] stands for this setting: integrin αllbβ3, immobilized fibrinogen, at 22 mM, activation = higher absorbance than negative control, n. d. = not detected.
Where [10] appears, read: integrin αllbβ3, immobilized fibrinogen, ligand range 0.1-22 mM.
Where [11] appears, read: integrin αVβ3, immobilized vitronectin.
Where [12] appears, read: integrin αVβ3, immobilized vitronectin, ligand range 0.1-22 mM.
Setting [13] is: integrin αVβ3, immobilized RGD polymer, at 22 mM (highest concentration).
[14] abbreviates: integrin αVβ3, immobilized RGD polymer, ligand range 0.1-22 mM.

“Also recorded” adds a separate entry of the source. Read-outs that look alike come from different tables or passages of the source. Where only a bound is given, the exact number is not on record here.

A word on the inhibition: it is the share of the control response that was lost under treatment. One may read the IC50 as the point on the concentration scale where inhibition reaches its midpoint. The low end stands for higher potency, the high end for lower potency.

T2 sequence (P08514 32-887 limits assumed): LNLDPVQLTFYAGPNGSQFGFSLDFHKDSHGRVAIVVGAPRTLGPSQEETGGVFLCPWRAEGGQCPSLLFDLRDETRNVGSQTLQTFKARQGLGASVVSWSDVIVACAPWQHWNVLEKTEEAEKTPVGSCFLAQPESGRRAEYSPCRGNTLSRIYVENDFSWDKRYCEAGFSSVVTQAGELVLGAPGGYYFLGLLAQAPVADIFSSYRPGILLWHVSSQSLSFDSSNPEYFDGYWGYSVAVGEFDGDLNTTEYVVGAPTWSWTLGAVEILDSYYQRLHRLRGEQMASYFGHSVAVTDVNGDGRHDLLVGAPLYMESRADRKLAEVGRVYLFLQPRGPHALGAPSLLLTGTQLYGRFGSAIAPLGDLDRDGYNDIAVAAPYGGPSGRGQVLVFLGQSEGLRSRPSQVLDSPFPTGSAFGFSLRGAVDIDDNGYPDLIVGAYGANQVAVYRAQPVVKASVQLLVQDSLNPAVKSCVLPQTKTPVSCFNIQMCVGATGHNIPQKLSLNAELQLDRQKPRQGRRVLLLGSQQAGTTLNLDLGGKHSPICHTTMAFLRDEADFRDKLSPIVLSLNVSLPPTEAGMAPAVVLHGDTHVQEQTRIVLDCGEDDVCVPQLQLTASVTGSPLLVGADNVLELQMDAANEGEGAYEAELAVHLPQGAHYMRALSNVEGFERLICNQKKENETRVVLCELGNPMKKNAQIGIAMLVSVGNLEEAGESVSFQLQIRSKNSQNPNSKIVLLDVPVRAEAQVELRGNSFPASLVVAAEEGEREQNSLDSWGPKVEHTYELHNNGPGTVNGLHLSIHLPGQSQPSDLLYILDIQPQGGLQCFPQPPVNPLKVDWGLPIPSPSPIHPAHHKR
T2 sequence (P08514 891-1039 partner limits assumed): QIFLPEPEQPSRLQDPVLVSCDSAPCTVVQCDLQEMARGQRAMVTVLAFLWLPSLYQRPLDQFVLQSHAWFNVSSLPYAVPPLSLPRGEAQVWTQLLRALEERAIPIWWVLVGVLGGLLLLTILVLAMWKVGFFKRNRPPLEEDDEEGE
T2 sequence (P05106 27-788): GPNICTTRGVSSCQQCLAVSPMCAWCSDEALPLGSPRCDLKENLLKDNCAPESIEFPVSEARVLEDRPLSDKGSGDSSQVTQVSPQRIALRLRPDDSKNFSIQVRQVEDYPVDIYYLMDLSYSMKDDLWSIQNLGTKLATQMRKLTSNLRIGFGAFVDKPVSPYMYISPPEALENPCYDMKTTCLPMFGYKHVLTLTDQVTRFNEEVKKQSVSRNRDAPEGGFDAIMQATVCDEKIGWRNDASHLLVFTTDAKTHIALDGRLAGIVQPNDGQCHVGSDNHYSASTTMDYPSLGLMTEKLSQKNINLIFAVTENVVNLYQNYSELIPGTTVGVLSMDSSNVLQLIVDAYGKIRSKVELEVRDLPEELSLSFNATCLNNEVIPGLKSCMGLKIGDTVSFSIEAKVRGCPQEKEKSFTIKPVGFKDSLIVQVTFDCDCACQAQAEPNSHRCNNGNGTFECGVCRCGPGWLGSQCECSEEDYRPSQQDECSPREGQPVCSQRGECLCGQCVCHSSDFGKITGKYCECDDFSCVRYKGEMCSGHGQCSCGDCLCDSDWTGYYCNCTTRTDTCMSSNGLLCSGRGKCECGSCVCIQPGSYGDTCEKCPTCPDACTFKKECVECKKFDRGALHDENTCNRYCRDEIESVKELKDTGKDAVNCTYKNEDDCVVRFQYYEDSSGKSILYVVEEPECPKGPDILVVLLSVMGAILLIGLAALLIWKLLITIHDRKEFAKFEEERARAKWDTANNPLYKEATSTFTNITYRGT
T1 sequence (P08648 42-995 limits assumed): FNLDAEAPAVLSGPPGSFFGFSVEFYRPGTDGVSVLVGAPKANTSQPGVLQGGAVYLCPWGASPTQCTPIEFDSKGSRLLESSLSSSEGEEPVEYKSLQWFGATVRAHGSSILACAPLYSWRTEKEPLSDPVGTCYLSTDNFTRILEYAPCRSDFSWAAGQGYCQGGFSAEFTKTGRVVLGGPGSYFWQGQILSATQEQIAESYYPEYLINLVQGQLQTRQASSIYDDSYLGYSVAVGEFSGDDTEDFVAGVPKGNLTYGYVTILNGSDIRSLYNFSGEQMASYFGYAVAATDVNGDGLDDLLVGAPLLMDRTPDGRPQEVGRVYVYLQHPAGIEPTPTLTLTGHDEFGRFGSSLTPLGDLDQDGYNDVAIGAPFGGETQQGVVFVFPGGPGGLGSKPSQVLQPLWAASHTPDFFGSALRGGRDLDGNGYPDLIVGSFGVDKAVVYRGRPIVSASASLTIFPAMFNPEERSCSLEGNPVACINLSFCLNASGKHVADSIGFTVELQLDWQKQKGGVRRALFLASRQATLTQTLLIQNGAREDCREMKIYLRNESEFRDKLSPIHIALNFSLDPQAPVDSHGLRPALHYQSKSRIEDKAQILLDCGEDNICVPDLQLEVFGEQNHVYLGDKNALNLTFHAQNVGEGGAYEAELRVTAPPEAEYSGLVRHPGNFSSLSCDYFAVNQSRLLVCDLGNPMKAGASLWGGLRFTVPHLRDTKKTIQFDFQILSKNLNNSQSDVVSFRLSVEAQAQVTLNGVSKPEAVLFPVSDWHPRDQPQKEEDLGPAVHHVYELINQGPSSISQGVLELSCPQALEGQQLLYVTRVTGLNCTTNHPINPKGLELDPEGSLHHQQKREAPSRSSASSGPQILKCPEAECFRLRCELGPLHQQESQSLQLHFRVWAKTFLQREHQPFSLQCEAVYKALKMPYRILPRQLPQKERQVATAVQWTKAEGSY
T1 sequence (P05556 21-728 limits assumed): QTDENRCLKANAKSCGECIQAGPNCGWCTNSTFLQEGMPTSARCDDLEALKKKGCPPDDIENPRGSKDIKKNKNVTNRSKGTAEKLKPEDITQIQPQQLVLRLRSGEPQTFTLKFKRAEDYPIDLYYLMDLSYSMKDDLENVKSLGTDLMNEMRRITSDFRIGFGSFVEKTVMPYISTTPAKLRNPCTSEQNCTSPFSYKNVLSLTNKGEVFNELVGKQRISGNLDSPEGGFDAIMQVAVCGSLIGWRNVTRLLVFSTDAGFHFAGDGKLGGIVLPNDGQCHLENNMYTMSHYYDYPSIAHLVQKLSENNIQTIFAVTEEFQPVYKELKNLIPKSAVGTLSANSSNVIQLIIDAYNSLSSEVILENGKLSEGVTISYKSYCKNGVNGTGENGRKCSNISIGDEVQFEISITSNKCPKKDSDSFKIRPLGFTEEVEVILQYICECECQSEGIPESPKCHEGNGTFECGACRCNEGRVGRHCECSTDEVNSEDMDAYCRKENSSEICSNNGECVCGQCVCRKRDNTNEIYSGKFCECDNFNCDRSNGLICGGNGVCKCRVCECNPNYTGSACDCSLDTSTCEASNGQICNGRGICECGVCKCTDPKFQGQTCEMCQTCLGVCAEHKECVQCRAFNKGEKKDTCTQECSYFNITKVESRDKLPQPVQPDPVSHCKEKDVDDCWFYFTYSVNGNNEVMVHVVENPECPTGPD

Regarding `CC(=O)NCC(=O)O` [Acetylglycine], the values for the inhibition on integrin α5β1 (setting [7]), at integrin αVβ3 [1] (setting [11]) and at integrin αVβ3 [2] (setting [13]) were 98.9%, 58.5% and 46.8%, respectively. Further, the IC50 against integrin α5β1 (setting [8]) is 5.8 ± 0.9 mM; on integrin αllbβ3 (setting [10]), more than 22 mM; against integrin αVβ3 [1] (setting [12]), 9.2 ± 1 mM; against integrin αVβ3 [2] (setting [14]) it was more than 22 mM. Moreover, the “Maximal Inhibition Achieved” value is on record as “activation” at integrin αllbβ3 (setting [9]) and “high activation” on integrin αllbβ3 (integrin αllbβ3, immobilized fibrinogen, at 22 mM, activation = higher absorbance than negative control, n. d. = not detected, listed as acetylglycine).

Turning to `NCP(=O)(O)O` [Aminomethylphosphonic acid (AMPA), aminomethylphosphonic acid], the inhibition at integrin α5β1 (setting [7]) was 44.8%; at integrin αVβ3 [1] (setting [11]), 75.3%; at integrin αVβ3 [2] (setting [13]), 95.9%. The IC50 was more than 22 mM on integrin α5β1 (setting [8]), more than 22 mM on integrin αllbβ3 (setting [10]), 1.5 ± 0.4 mM at integrin αVβ3 [1] (setting [12]) and 1.3 ± 0.2 mM against integrin αVβ3 [2] (setting [14]). Further, the “Maximal Inhibition Achieved” value on integrin αllbβ3 (setting [9]) is on record as “activation”; on integrin αllbβ3 (integrin αllbβ3, immobilized fibrinogen, at 22 mM, activation = higher absorbance than negative control, n. d. = not detected, listed as AMPA), “activation; also recorded: activated”. For the same compound, the “Water Solubility” value in series [3] (20 °C) is 56 (20 °C) g/L.

Regarding `NCC(=O)O` [Glycine], the IC50 against integrin α5β1, on integrin αllbβ3, against integrin αVβ3 [1] and at integrin αVβ3 [2] was more than 22 mM throughout. The “Maximal Inhibition Achieved” value on integrin α5β1 is >22 (22.1 ± 3.3%).

Regarding `O=C(O)CNCP(=O)(O)O` [Glyphosate, N-(phosphonomethyl)glycine], the inhibition at integrin α5β1 (setting [7]) was 85.7%; on integrin αllbβ3 (integrin αllbβ3, immobilized fibrinogen, at 22 mM, activation = higher absorbance than negative control, n. d. = not detected, read-out: Maximal Inhibition Achieved), 40.2%; on integrin αVβ3 [1] (setting [11]), 44.8%; on integrin αVβ3 [2] (setting [13]), 100%. Also, the IC50 is 9.7 ± 3.2 mM against integrin α5β1 (setting [8]), more than 22 mM at integrin αllbβ3 (setting [10]), more than 22 mM against integrin αVβ3 [1] (setting [12]) and 2.7 ± 0.5 mM against integrin αVβ3 [2] (setting [14]). In addition, the “Inhibition of binding of αVβ3 to S-protein” value at integrin αVβ3 [4] was found to be 35.6 ± 4.4%. The “Inhibition of RGD-binding capability of αVβ3 integrin” value at integrin αVβ3 [5] is on record as 96.3 ± 3.2%. For the same compound, the “Adhesion of MC3T3-E1 cells to RGD motif” value in the series on MC3T3-E1 cells is “significantly reduced”. For the same compound, the “Water Solubility” value in series [3] (pH 7.0) is given as 157 g/L.

For the compound `O=C(O)CNCC(=O)O` [Iminodiacetic acid], the results for the inhibition at integrin α5β1 (setting [7]), on integrin αVβ3 [1] (setting [11]) and at integrin αVβ3 [2] (setting [13]) were 8%, 52.4% and 24.6%, respectively. Moreover, the IC50 against integrin α5β1 (setting [8]) was more than 22 mM; at integrin αllbβ3 (setting [10]) it was more than 22 mM; on integrin αVβ3 [1] (setting [12]) it was 11.5 ± 1.5 mM; at integrin αVβ3 [2] (setting [14]) it was more than 22 mM. Further, the “Water Solubility” value in series [3] (5 °C) is 24.3 (5 °C) g/L.

As to `CC(=O)N(CC(=O)O)CP(=O)(O)O` [N-acetylglyphosate], the inhibition on integrin α5β1 (setting [7]) was 15%; on integrin αVβ3 [1] (setting [11]), 47.5%. For the same compound, the IC50 against integrin α5β1 (setting [8]), on integrin αllbβ3 (setting [10]), against integrin αVβ3 [1] (setting [12]) and against integrin αVβ3 [2] (setting [14]) was more than 22 mM throughout. Besides, the inhibition at 22000 µM at integrin αVβ3 [2] (integrin αVβ3, immobilized RGD polymer, at 22 mM (highest concentration), read-out: Maximal Inhibition Achieved) is 40.6%. Moreover, the “Water Solubility” value in [3] (temperature or pH not given) is “slight”.

Turning to `CNCC(=O)O` [Sarcosine], the inhibition at integrin α5β1 (setting [7]) is 13.4%; on integrin αVβ3 [1] (setting [11]), 37.9%; at integrin αVβ3 [2] (setting [13]), 35%. The IC50 at integrin α5β1 (setting [8]), against integrin αllbβ3 (setting [10]), at integrin αVβ3 [1] (setting [12]) and at integrin αVβ3 [2] (setting [14]) was more than 22 mM each time. The “Clog Po/w” value in series [6] is given as −3.2. In addition, in series [3] (20 °C), the “Water Solubility” value is 89.1 (20 °C) g/L.

As to Glyphosate isopropylammonium salt, the “Clog Po/w” value in [6] is listed as −4.16. In [3] (temperature or pH not given), the “Water Solubility” value is on record as 1050 g/L.
